Earlier results, collected in patent publication US12042557B2, “Rapid establishment and/or termination of substantial steady-state drug delivery” (Intarcia Therapeutics, Inc., priority 2009, dated 2024).
Where two headings read alike, the source gives them in different places.

Legend:
[1] = in vivo
[2] = system: subjects on metformin-only background treatment, type 2 diabetes mellitus
[3] = Treatment F: oral 100 mg/day, subjects with baseline HbA1c less than 9.0
[4] = Treatment F: oral once a day 100 mg/day, metformin background, Bergenstal 2010

Molecule	half-life [1]	change of HbA1c for the study [2, 3]	endpoint HbA1c % [2, 3]	change of HbA1c for the study [2, 4]	endpoint HbA1c % [2, 4]	percentage of subjects who achieved an HbA1c of 7% or less [2, 4]
PYY: 36 amino acid residue peptide amide [peptide YY]	approximately 8 minutes	–	–	–	–	–
N[C@@H](CC(=O)N1CCn2c(nnc2C(F)(F)F)C1)Cc1cc(F)c(F)cc1F [sitagliptin, Sitagliptin]	–	−0.5%	7.2%	−0.9%	7.6%	31%
